Data set [1] addresses T1, NR1/NR2B receptor (Rattus norvegicus, UniProt P35439+Q00960).
T1 construct: from tissue; host or cells: rat cerebral cortex membranes (male Slc: Wistar rat)
In words: Test of binding with NMDA receptor (NR1/NR2B receptor): competition with [3H]-Ifenprodil on rat cerebral cortex membrane specimen. The procedure: Test of Binding with NMDR Receptor (NR1/NR2B Receptor)
Using Ifenprodil which is an antagonist specific for a NR1/NR2B subtype receptor as a ligand, an experiment of competition between a receptor and a test compound was performed.
Using a male Slc: Wistar rat as an animal, a brain was isolated after decapitation, and a cerebral cortex was fractionated. The cerebral cortex was homogenized with a 20-fold amount of an ice-cooled 50 mM Tris/HCl buffer (pH 7.4), and the homogenate was centrifuged at 4° C. and 27,500×g for 10 minutes. The resulting precipitate was suspended in the same buffer, and this was again centrifuged. This operation was repeated for three times, the resulting precipitate was suspended in a buffer, and this was stored at −80° C. Immediately before an experiment, the frozen suspension was thawed at room temperature, this was centrifuged at 4° C. and 27,500×g for 10 minutes, and the resulting precipitate was suspended in a buffer. Further, the suspension was diluted 10-fold with a buffer, and this was used as a membrane specimen in an experiment. In a binding experiment, to 470 μl of the membrane specimen were added […] of each of test compounds having different concentrations, 10 μl of a labeled ligand [^3H]-Ifenprodil and 10 μl GBR-12909, followed by incubation at an ice temperature for 120 minutes. A concentration of [^3H]-Ifenprodil of the labeled ligand was finally 5 nM, and a concentration of GBR-12909 was finally 3 μM. For measuring a total binding amount, DMSO as a solvent was used and, for measuring a non-specific binding amount, 100 μM Ifenprodil was used. GBR-12909 was added in order to block binding of [^3H]-Ifenprodil to non-polyamine-sensitive site. After incubation, a bound formand a free foramwere separated using Whatman GF/C filter (manufactured by Whatman), and the filter was washed with 2.5 ml ice-cooled buffer four times. The filter was immersed in liquid scintillation (Cryasol I, manufactured by Nacalai tesque), and radioactivity (dpm) was measured with a liquid scintillation counter. From a measured value, a binding inhibition rate (%) was obtained by the following equation, and a dose at which binding is inhibited 50% (IC50) was calculated. A formula of GBR-12909 (vanoxerine) is shown below.
Binding inhibition rate(%)=100−[(binding amount in the presence of test compound−non-specific binding amount)/(total binding amount−non-specific binding amount)]×100

The target of data set [2] is T2, NMDA receptor (NR1 subunit and NR2B subunit) (Mus musculus, UniProt P35438+Q01097).
T2 construct: expressed in transfected cells; host or cells: HEK293 cells, transient transfection with pcDNA3.1 plasmids
T2 sequence (Q01097 27-1482, other chains not shown): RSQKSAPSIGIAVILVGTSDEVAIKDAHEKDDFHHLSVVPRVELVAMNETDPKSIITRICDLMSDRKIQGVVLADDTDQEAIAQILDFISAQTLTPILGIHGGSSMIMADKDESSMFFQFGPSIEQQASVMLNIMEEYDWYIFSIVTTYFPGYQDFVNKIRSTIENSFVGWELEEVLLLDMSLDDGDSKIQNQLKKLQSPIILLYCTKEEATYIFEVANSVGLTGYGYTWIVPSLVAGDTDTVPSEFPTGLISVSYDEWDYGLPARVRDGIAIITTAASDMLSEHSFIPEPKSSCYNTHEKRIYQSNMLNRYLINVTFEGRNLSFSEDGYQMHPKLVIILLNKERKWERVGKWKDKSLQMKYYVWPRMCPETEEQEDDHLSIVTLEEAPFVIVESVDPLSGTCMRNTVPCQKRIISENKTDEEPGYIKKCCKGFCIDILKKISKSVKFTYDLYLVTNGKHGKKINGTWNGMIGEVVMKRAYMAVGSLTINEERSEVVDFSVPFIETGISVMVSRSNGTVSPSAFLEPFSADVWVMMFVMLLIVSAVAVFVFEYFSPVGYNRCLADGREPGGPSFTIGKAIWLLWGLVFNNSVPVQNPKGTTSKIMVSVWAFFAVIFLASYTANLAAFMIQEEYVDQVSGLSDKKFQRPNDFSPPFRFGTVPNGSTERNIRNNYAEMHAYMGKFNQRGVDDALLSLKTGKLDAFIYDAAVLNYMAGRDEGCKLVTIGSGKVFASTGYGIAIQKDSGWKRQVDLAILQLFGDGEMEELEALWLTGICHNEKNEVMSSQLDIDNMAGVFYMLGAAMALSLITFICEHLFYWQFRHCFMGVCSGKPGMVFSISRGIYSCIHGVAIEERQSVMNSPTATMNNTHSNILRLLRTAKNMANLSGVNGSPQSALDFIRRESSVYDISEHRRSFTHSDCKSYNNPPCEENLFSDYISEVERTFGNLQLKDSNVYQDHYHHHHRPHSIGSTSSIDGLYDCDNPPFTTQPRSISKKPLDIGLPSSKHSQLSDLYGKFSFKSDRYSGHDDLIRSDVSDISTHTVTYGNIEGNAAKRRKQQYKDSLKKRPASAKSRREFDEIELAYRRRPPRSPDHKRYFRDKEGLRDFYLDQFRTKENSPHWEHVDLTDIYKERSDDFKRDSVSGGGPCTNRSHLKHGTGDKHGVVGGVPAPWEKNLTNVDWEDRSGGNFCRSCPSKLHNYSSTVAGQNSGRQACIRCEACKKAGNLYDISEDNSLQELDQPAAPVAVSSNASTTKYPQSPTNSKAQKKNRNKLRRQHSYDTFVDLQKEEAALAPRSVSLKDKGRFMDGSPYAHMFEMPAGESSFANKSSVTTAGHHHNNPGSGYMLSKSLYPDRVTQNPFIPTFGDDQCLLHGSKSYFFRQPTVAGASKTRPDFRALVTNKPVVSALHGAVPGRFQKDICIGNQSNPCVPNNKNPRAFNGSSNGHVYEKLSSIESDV
Kind of data set: Measurement of expression of NMDA receptor and Ca ion influx amount (glutamic acid/glycine-induced, HEK293 cell co-expressing NR1 and NR2B subunits, Fluo-3/AM). Format: cell-based. The procedure:
Measurement of Expression of NMDA Receptor and Ca Ion Influx Amount
A complementary DNA (cDNA) of a mouse NMDA receptor subunit was transiently introduced into a HEK293 cell and, after 1 day from introduction, change in a glutamic acid/glycine-induced intracelluar Ca amount was measured using a Ca ion reactive fluorescent coloring matter.
The HEK293 cell was cultured, and passaged using a modified Dulbecco's Eagle medium (DMEM, low glucose).
The HEK293 cell (20,000/well) was seeded on a 96-well plate, a NR1 subunit and a NR2B subunit of the NMDA receptor incorporated into the pcDNA3.1 plasmid were transiently introduced into a cell, and the subunits were co-expressed. An introduction amount of a DNA was 0.025 μg in the case of the NR1 subunit, and 0.075 μg in the case of NR2B subunit per well. For the cell after introduction, cell death was inhibited using 50 μM of the NMDA receptor antagonist MK-801.
For adjusting a test compound and washing a cell, Krebs/Ringer/Hepes buffer (KRH, Ca: 5 mM) was used.
After 1 day from introduction, the NMDA receptor antagonist MK-801 was washed out using the KRH buffer, and a Ca ion indication fluorescent coloring matter Fluo-3/AM was made to be taken into the cell. Ca ion influx was induced with 20 μM glutamic acid/2 μM glycine. Change in a fluorescent amount due to Ca ion influx into the cell was measured at excitation of 480 nm using a fluorescent imaging system FDSS 3000.
From a measured value of the test compound, a Ca ion influx inhibition rate (%) was obtained by the following equation, and a dose at which influx is inhibited 50% (IC50) was calculated.
Ca ion influx inhibition rate(%)=100−[(fluorescent amount in the presence of test compound−background fluorescent amount)/(total fluorescent amount−background fluorescent)]×100

Where [3] appears, read: [3H]-Ifenprodil 5 nM, GBR-12909 3 μM, rat cerebral cortex membranes, ice temperature 120 minutes, read-out: NR2B (IC50 μM).
[4] abbreviates: Ca ion influx induced with 20 μM glutamic acid/2 μM glycine, HEK293 cell with mouse NR1/NR2B, read-out: Ca2+ IC50.
The mark [5] stands for this setting: same binding test, read-out: IC50 (binding with NR1/NR2B receptor).
Where [6] appears, read: same Ca ion influx test, read-out: IC50 (Ca ion influx inhibition).

Results on 22 compounds are retold here after patent US7935706B2, “Nitrogen-containing heterocycle derivatives substituted with cyclic group” (Shionogi & Co., Ltd., priority 2006, dated 2011).

Read-outs that look alike come from different tables or passages of the source.

T1 sequence (Q00960 27-1482, other chains not shown): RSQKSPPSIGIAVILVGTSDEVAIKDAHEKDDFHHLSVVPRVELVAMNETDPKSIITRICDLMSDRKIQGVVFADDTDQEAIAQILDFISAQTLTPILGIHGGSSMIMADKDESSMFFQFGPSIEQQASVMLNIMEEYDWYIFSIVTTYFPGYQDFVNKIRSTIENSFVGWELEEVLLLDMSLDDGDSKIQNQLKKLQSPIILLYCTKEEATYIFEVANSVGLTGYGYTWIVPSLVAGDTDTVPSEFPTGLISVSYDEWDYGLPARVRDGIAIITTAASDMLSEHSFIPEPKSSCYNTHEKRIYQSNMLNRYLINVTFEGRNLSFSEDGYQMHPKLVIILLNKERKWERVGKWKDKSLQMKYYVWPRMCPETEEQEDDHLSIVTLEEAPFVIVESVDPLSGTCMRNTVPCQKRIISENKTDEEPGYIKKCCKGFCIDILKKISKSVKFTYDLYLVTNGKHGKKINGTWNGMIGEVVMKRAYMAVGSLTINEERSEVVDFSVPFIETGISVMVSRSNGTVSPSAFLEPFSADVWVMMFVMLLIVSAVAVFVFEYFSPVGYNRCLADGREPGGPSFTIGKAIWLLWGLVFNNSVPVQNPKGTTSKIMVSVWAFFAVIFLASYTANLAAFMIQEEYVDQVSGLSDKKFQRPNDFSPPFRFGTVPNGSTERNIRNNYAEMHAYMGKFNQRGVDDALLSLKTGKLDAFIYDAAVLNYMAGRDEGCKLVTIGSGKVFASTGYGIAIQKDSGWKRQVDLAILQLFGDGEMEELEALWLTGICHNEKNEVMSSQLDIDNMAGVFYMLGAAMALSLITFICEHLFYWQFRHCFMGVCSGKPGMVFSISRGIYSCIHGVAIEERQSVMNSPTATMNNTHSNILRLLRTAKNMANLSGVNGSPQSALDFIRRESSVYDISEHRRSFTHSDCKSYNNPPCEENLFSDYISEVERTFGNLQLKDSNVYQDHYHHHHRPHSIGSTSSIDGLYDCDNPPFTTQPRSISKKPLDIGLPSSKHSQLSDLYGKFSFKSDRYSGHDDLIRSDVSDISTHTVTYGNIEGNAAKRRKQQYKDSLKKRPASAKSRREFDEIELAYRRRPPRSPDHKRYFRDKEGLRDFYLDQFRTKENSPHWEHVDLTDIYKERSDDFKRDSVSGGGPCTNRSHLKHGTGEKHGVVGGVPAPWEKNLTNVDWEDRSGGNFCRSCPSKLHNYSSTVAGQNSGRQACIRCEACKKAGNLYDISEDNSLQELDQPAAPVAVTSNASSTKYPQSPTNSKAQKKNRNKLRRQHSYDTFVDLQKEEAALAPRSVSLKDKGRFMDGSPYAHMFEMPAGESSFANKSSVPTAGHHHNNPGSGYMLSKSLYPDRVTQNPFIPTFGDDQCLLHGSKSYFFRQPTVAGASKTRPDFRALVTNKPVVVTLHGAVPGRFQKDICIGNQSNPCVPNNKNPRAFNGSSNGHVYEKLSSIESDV

In general, melting point refers to the temperature of the solid-liquid transition. In the case of `O=C(NCCC1CCN(c2ccc(Cl)cc2)CC1)c1ccc(=O)[nH]c1` [Compound I-1], the melting point lay in the range of 232 to 234 °C. Moreover, in data set [1] (setting [3]), the IC50 is 0.043 µM.

On to `O=C(NCCC1CCN(c2ccc(C(F)(F)F)cc2)CC1)c1ccc(=O)[nH]c1` [Compound I-2], for which the melting point was 232 to 233 °C (dec.). Besides, the IC50 in data set [1] (setting [3]) was 0.033 µM. Also, the IC50 in data set [2] (setting [4]) was 14 nM.

Turning to `O=C(NCCC1CCN(c2ccc(Br)cc2)CC1)c1ccc(=O)[nH]c1` [Compound I-5], the melting point was 236 to 238 °C (dec.). Besides, in data set [1] (setting [3]), the IC50 was found to be 0.043 µM. Besides, the IC50 in data set [2] (setting [4]) came to 20 nM.

For the compound `O=C(NCCC1CCN(c2ccc(C(F)(F)F)cn2)CC1)c1ccc(=O)[nH]c1` [Compound I-6], the melting point lay within 232 to 234 °C. For the same compound, in data set [2] (setting [4]), the IC50 was 39 nM.

Consider `O=C(CC1(O)CCN(c2ccc(C(F)(F)F)cn2)CC1)Nc1ccc2[nH]c(=O)oc2c1` [Compound I-61], for which the melting point lay within 218 to 219 °C. Besides, the IC50 in data set [2] (setting [4]) turned out to be 37 nM.

`O=C(CC1CCN(c2ccc(C(F)(F)F)cn2)CC1)Nc1ccc2[nH]c(=O)oc2c1` [Compound I-62] yielded a melting point of 229 to 230 °C. Moreover, in data set [2] (setting [4]), the IC50 came to 92 nM.

Take `O=C(CC1=CCN(c2ccc(C(F)(F)F)cn2)CC1)Nc1ccc2[nH]c(=O)oc2c1` [Compound I-63]: the melting point lay within 236 to 237 °C. Besides, the IC50 in data set [2] (setting [4]) is 79 nM.

`O=C(CC1(O)CCN(c2ccc(C(F)(F)F)cc2)CC1)Nc1ccc2c(c1)CC(=O)N2` [Compound I-65] had a melting point of 260 to 261 °C.

Compound `O=C(C=C1CCN(c2ccc(C(F)(F)F)cn2)CC1)Nc1ccc2[nH]c(=O)sc2c1` [Compound I-66] registered a melting point of 219 to 220 °C. In addition, the IC50 in data set [1] (setting [3]) was 0.09 µM. Moreover, the IC50 in data set [2] (setting [4]) worked out at 25 nM.

`O=C(NCCC1(O)CCN(c2ccc(C(F)(F)F)cn2)CC1)c1cn[nH]c1` [Compound I-67] showed a melting point of 199 to 200 °C.

Turning to `CC(=O)c1ccc(N2CCN(C(=O)C(=O)Nc3ccc4[nH]c(=O)oc4c3)CC2)cc1` [Compound I-203], the melting point was 264 to 266 °C (dec.).

The compound `O=C(Nc1ccc2[nH]c(=O)oc2c1)C(=O)N1CCN(c2ccc(Cl)cn2)CC1` [Compound I-204] yielded a melting point of 241 to 243 °C. Further, the IC50 in data set [1] (setting [5]) was at most 0.1 µM.

As for `O=C(C=C1CCN(c2ccc(F)c(Cl)c2)CC1)Nc1ccc2[nH]c(=O)oc2c1` [Compound I-205], the melting point lay within 209 to 211 °C. For the same compound, in data set [1] (setting [5]), the IC50 was at most 0.1 µM.

For the compound `C[C@@H]1CN(C(=O)C(=O)Nc2ccc3[nH]c(=O)oc3c2)CCN1c1ccc(F)c(Cl)c1` [Compound I-206], the melting point was 107 to 108 °C. The IC50 in data set [1] (setting [5]) was at most 0.1 µM.

`O=C(NCCC1CCN(c2ccc(Cl)c(F)c2)CC1)c1ccc(=O)[nH]c1` [Compound I-208] showed a melting point of 230 to 232 °C. Moreover, the IC50 in data set [1] (setting [5]) is at most 0.1 µM. Moreover, in data set [2] (setting [6]), the IC50 was at most 100 nM.

Consider `C[C@@H]1CN(C(=O)C(=O)Nc2ccc3[nH]c(=O)oc3c2)CCN1c1ccc(C(F)(F)F)cn1` [Compound I-209], for which the melting point is 197 to 198 °C. In addition, the IC50 in data set [1] (setting [5]) was at most 0.1 µM. In addition, the IC50 in data set [2] (setting [6]) is at most 100 nM.

`COc1ccc(N2CCN(C(=O)C(=O)Nc3ccc4[nH]c(=O)oc4c3)CC2)cc1Cl` [Compound I-247] registered a melting point of 224 to 226 °C. Moreover, the IC50 in data set [1] (setting [5]) was at most 0.1 µM.

The compound `COc1ccc(N2CCN(C(=O)C(=O)Nc3ccc4[nH]c(=O)oc4c3)C[C@H]2C)cc1Cl` [Compound I-248] showed a melting point of 118 to 120 °C.

In turn, `COc1ccc(N2CCN(C(=O)C(=O)Nc3ccc4[nH]c(=O)oc4c3)[C@H](C)C2)cc1Cl` [Compound I-249] displayed a melting point of 123 to 125 °C. Besides, the IC50 in data set [1] (setting [5]) was at most 0.1 µM. Besides, the IC50 in data set [2] (setting [6]) is at most 100 nM.

For `COc1cc(N2CCN(C(=O)C(=O)Nc3ccc4[nH]c(=O)oc4c3)CC2)ccc1Cl` [Compound I-250], the melting point fell in the range of 201 to 203 °C.

For `COc1cc(N2CCN(C(=O)C(=O)Nc3ccc4[nH]c(=O)oc4c3)C[C@H]2C)ccc1Cl` [Compound I-251], the melting point lay in the range of 122 to 124 °C.

`CCOc1ccc(N2CCN(C(=O)C(=O)Nc3ccc4[nH]c(=O)oc4c3)CC2)cc1F` [Compound I-253] yielded a melting point of 226 to 228 °C.
